Results reported in article PMC10762035, “Molecular basis of human trace amine-associated receptor 1 activation” (Nature Communications, 2024).
Positions count from the first letter of the chain named. “And” between values parts separate entries of the source, which are not always exact repeats. Equal values may be shown once. Read-outs that look alike come from different tables or passages of the source.

Experiments:
Type in all cases: cell-based
hTA1 C88S = target: T1, hTA1 C88S (Homo sapiens, UniProt Q96RJ0, C88S); test: GloSensor cAMP accumulation assay, C88S mutant
T1 construct: expressed in transfected cells; host or cells: HEK293T
T1 sequence (Q96RJ0 1-339 C88S): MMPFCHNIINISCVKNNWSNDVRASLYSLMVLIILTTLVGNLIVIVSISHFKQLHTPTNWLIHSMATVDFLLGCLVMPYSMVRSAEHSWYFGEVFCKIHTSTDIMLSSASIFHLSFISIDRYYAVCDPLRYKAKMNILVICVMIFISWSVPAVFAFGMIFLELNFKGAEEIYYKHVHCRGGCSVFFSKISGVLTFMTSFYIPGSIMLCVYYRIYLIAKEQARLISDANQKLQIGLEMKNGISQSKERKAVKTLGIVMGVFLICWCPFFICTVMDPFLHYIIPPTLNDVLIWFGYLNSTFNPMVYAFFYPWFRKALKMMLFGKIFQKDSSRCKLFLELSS

hTA1 I290N = target: T2, hTA1 I290N (Homo sapiens, UniProt Q96RJ0, I290N); test: GloSensor cAMP accumulation assay, I290N mutant; conditions: for cAMP accumulation response, single replicate values (source data, Supplementary Figure 5): hTA1 I290N (N=2), log[Compound], M = -5; for ΔpEC50 values (each mutant value - WT average), Mean: hTA1 I290N mutant minus WT average;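 on all read-outs here: cells transiently co-expressing hTA1 and the GloSensor cAMP biosensor, luminescence read 30 min after compound addition at room temperature, efficacy scaled to the maximal β-PEA response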
T2 construct: expressed in transfected cells; host or cells: HEK293T
T2 sequence (Q96RJ0 1-339 I290N): T1 sequence (Q96RJ0 1-339 C88S) with S88C, I290N

hTA1 C96S = target: T3, hTA1 C96S (Homo sapiens, UniProt Q96RJ0, C96S); test: GloSensor cAMP accumulation assay, C96S mutant; conditions: log[Compound]
T3 construct: expressed in transfected cells; host or cells: HEK293T
T3 sequence (Q96RJ0 1-339 C96S): T1 sequence (Q96RJ0 1-339 C88S) with S88C, C96S

hTA1 F195T = target: T4, hTA1 F195T (Homo sapiens, UniProt Q96RJ0, F195T); test: GloSensor cAMP accumulation assay, F195T mutant;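 further: cells transiently co-expressing HA-FLAG-tagged hTA1 and the GloSensor cAMP biosensor, luminescence read 30 min after agonist addition at room temperature, concentration-response fitted by nonlinear regression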
T4 construct: expressed in transfected cells; host or cells: HEK293T
T4 sequence (Q96RJ0 1-339 F195T): T1 sequence (Q96RJ0 1-339 C88S) with S88C, F195T

hTA1 T271N = target: T5, hTA1 T271N (Homo sapiens, UniProt Q96RJ0, T271N); test: GloSensor cAMP accumulation assay, T271N mutant
T5 construct: expressed in transfected cells; host or cells: HEK293T
T5 sequence (Q96RJ0 1-339 T271N): T1 sequence (Q96RJ0 1-339 C88S) with S88C, T271N

[1] = C88S, Mean of fit per experiment
[2] = hTA1 I290N mutant, β-PEA set to 100, each grid row a separate experiment, 3 replicates
[3] = C96S, M = -5, single replicates (N=2)
[4] = C96S, M = -5.522, single replicates (N=2)
[5] = C96S, M = -6, single replicates (N=2)
[6] = C96S, M = -6.522, single replicates (N=2)
[7] = C96S, M = -7, single replicates (N=2)
[8] = C96S, M = -7.522, single replicates (N=2)
[9] = C96S, M = -8, single replicates (N=2)
[10] = C96S, M = -8.522, single replicates (N=2)
[11] = C96S, M = -9, single replicates (N=2)
[12] = C96S, M = -9.522, single replicates (N=2)
[13] = C96S, M = -10, single replicates (N=2)
[14] = C96S, M = -10.522, single replicates (N=2)
[15] = C96S, M = -11, single replicates (N=2)
[16] = C96S, M = -11.522, single replicates (N=2)
[17] = M = -11.522, single replicates, mutant block above C178S
[18] = M = -12, single replicates, mutant block above C178S
[19] = M = -12.522, single replicates, mutant block above C178S
[20] = F195T mutant, Figure 5B, β-PEA = 100, each row one independent experiment (3 replicates)
[21] = T271N mutant, Figure 5B, β-PEA = 100, each row one independent experiment (3 replicates)

Structure (SMILES)	Emax values (hTA1 C88S; [1])	cAMP accumulation response, single replicate values (source data, Supplementary Figure 5) (hTA1 I290N)	ΔpEC50 values (each mutant value - WT average), Mean (hTA1 I290N)	Emax values, Mean (hTA1 I290N; [2])	Normalized Luminescence Counts (hTA1 C96S; [3])	Normalized Luminescence Counts (hTA1 C96S; [4])	Normalized Luminescence Counts (hTA1 C96S; [5])	Normalized Luminescence Counts (hTA1 C96S; [6])	Normalized Luminescence Counts (hTA1 C96S; [7])	Normalized Luminescence Counts (hTA1 C96S; [8])	Normalized Luminescence Counts (hTA1 C96S; [9])	Normalized Luminescence Counts (hTA1 C96S; [10])	Normalized Luminescence Counts (hTA1 C96S; [11])	Normalized Luminescence Counts (hTA1 C96S; [12])	Normalized Luminescence Counts (hTA1 C96S; [13])	Normalized Luminescence Counts (hTA1 C96S; [14])	Normalized Luminescence Counts (hTA1 C96S; [15])	Normalized Luminescence Counts (hTA1 C96S; [16])	Normalized Luminescence Counts (hTA1 C96S; [17])	Normalized Luminescence Counts (hTA1 C96S; [18])	further results
CCC(CC1COC(N)=N1)c1ccccc1 (stereo not drawn) [Ro5256390]	141.143 and 102.28	109.556 and 109.922 and 109.294 and 105.343	-0.14 and 0.00774	96.7119	-0.5726 and -3.209 and -1.891 and -16.2542 and -4.6346 and -2.698	-1.891 (2×) and -3.209 and -4.6346 and -8.508 and 10.8582	4.041 and -2.55 and -0.5726 and 5.048 (2×) and -10.4444	1.4045 and -2.55 and 2.723 and -0.7614 and -4.6346 and 3.112	2.723 and -1.891 and 1.4045 and -0.7614 (2×) and -4.6346	5.359 and -3.209 and 2.723 and -0.7614 and -10.4444 and 14.7315	2.064 and -0.5726 (2×) and 30.2243 and -8.508 and 12.7948	0.7455 and -1.891 and 4.7 and 14.7315 and 3.112 and 12.7948	0.7455 and -1.232 and -1.891 and 18.6047 and 8.922 and -4.6346	0.08646 and -3.209 and -2.55 and 3.112 and 1.175 and -0.7614	1.4045 and -0.5726 and 0.7455 and 3.112 and -2.698 (2×)	-0.5726 and -2.55 and -1.232 and 5.048 and 6.985 and -2.698	0.7455 and 0.08646 and 4.7 and 32.1609 and 18.6047 and 10.8582	3.382 and 0.7455 and 1.4045 and 20.5413	0.4362 and 0.4589 and 0.8459 and 2.031 and 1.818 and 1.444	0.6183 and 0.1175 and -0.01903 and 3.527 and 0.8561 and 0.9629	Emax (hTA1 C88S; C88S, relative to β-PEA): 122%; EC50 (hTA1 C88S; pEC50 values, C88S, Mean of fit per experiment): 3.91 nM and 2.46 nM; EC50 (hTA1 C88S; pEC50 ± SEM, C88S, n=2): 3.09 nM; Emax (hTA1 C88S; read-out: Span ± SEM (Emax normalized to β-PEA), C88S, n=2): 122%; EC50 (hTA1 I290N; EC50, I290N, n=2): 6.21 nM; EC50 (hTA1 I290N; pEC50 values (Mean), hTA1 I290N mutant, Figure 3B source data, each grid row a separate experiment, 3 replicates): 7.37 nM and 5.24 nM; Emax (hTA1 I290N; read-out: Emax values (Mean), hTA1 I290N mutant, β-PEA set to 100, each grid row a separate experiment, 3 replicates): 101%; Emax (hTA1 I290N; read-out: Span ± SEM (Emax normalized to β-PEA), I290N, n=2): 99 ± 2.27%; Normalized Luminescence Counts (hTA1 C96S; [19]): -0.1556 (2×) and -0.2011 and 1.711 and 1.818 and 0.6424; EC50 (hTA1 F195T; EC50, F195T, n=2): 2.9 nM; Emax values, Mean (hTA1 F195T; [20]): 107.711; EC50 (hTA1 F195T; pEC50 values, Mean, F195T mutant, Figure 5B, each row one independent experiment (3 replicates)): 1.63 nM and 4.03 nM; Emax (hTA1 F195T; read-out: Emax values, Mean, F195T mutant, Figure 5B, β-PEA = 100, each row one independent experiment (3 replicates)): 105%; Emax (hTA1 F195T; read-out: Span ± SEM (Emax normalized to β-PEA), F195T, n=2): 106 ± 1.33%; EC50 (hTA1 T271N; EC50, T271N, n=2): 12.6 nM; ΔpEC50 values (each mutant value - WT average), Mean (hTA1 T271N; T271N mutant minus WT average, Figure 5B): -0.2524 and -0.4929; Emax values, Mean (hTA1 T271N; [21]): 121.264 and 99.7038; EC50 (hTA1 T271N; pEC50 values, Mean, T271N mutant, Figure 5B, each row one independent experiment (3 replicates)): 9.54 nM and 16.6 nM; Emax (hTA1 T271N; read-out: Span ± SEM (Emax normalized to β-PEA), T271N, n=2): 110%
NCCc1ccc(O)cc1 [TYR, tyramine]	100.851	84.4195 and 103.709 and 90.7072 and 91.6949	-0.07565 and -0.07195	99.2249	1.4045 and 3.382 and -0.5726 and -0.7614 and 6.985 and 24.4145	0.08646 and 2.064 and -0.5726 and 5.048 (2×) and 10.8582	-1.891 and 1.4045 and -2.55 and -0.7614 and 5.048 and -8.508	-0.5726 and -3.209 and -2.55 and -6.571 (2×) and -2.698	0.08646 and 0.7455 and -2.55 and -0.7614 and -4.6346 and -2.698	-1.232 and -0.5726 and 0.7455 and 1.175 and -2.698 and 3.112	2.064 and 0.7455 and -0.5726 and 3.112 and 24.4145 and -12.381	-1.891 and 0.08646 and -1.232 and 6.985 and 10.8582 and 12.7948	-1.232 and -0.5726 and -1.891 and 1.175 and -4.6346 and 6.985	-3.209 and -0.5726 and -3.868 and 8.922 and 55.4002 and 6.985	-1.232 and 0.08646 (2×) and 5.048 and 3.112 and 12.7948	-0.5726 and 2.064 and 0.08646 and 6.985 and -4.6346 and -0.7614	0.7455 and 2.723 and -1.232 and 3.112 (2×) and 10.8582	-0.5726 and 3.382 and -2.55 and -8.508	-0.1784 and -0.1556 and -0.3377 and 0.3752 and 3.634 and 2.245	0.04925 and -0.1556 and -0.3149 and 0.2684 and 2.352 and 1.711	Emax (hTA1 C88S; C88S, Mean of fit per experiment, read-out: Emax values): 118%; EC50 (hTA1 C88S; C88S, Mean of fit per experiment, read-out: pEC50 values (converted)): 442 nM and 317 nM; EC50 (hTA1 C88S; C88S, n=2, read-out: EC50): 375 nM; Emax (hTA1 C88S; C88S, n=2, read-out: Span ± SEM (Emax normalized to β-PEA)): 109 ± 8.4%; EC50 (hTA1 I290N; I290N, n=2, read-out: EC50): 492 nM; Emax (hTA1 I290N; I290N, n=2, read-out: Span ± SEM (Emax normalized to β-PEA)): 99.42 ± 0.19%; EC50 (hTA1 I290N; hTA1 I290N mutant, Figure 3B source data, each grid row a separate experiment, 3 replicates, read-out: pEC50 values (Mean) (converted)): 494 nM and 490 nM; Emax (hTA1 I290N; hTA1 I290N mutant, β-PEA set to 100, each grid row a separate experiment, 3 replicates, read-out: Emax values (Mean)): 99.6%; Normalized Luminescence Counts (hTA1 C96S; [19]): -0.4515 and -0.588 and -0.5653 and 1.283 and 1.3903 and 1.07; increase in potency vs wild type (hTA1 F195T; F195T): 26 fold; EC50 (hTA1 F195T; F195T mutant, Figure 5B, each row one independent experiment (3 replicates), read-out: pEC50 values, Mean (converted)): 10.2 nM and 24.6 nM; Emax values, Mean (hTA1 F195T; [20]): 119.677 and 98.2455; EC50 (hTA1 F195T; F195T, n=2, read-out: EC50): 6.34 nM; Emax (hTA1 F195T; F195T, n=2, read-out: Span ± SEM (Emax normalized to β-PEA)): 109%; EC50 (hTA1 T271N; T271N mutant, Figure 5B, each row one independent experiment (3 replicates), read-out: pEC50 values, Mean (converted)): 553 nM and 1350 nM; Emax values, Mean (hTA1 T271N; [21]): 98.6225; Emax (hTA1 T271N; T271N mutant, Figure 5B, β-PEA = 100, each row one independent experiment (3 replicates), read-out: Emax values, Mean): 106%; EC50 (hTA1 T271N; T271N, n=2, read-out: EC50): 863 nM; Emax (hTA1 T271N; T271N, n=2, read-out: Span ± SEM (Emax normalized to β-PEA)): 103 ± 3.93%
